Laboratory results as given in PubChem BioAssay (NCI).
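Each compound was tested at five concentrations against cells in 96-well plates for 48 hours. TGI marks complete inhibition of growth.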

Key:
Test in all cases: DTP human tumour cell line panel, 48 h
HCC-2998 colon = test system: HCC-2998 colon
HOP-92 NSCLC = test system: HOP-92 NSCLC
HCT-116 colon = test system: HCT-116 colon
786-0 renal = test system: 786-0 renal
TK-10 renal = test system: TK-10 renal
SN12C renal = test system: SN12C renal
A498 renal = test system: A498 renal
SW-620 colon = test system: SW-620 colon
MDA-MB-231 breast = test system: MDA-MB-231 breast
SNB-19 CNS = test system: SNB-19 CNS
NCI-H226 lung = test system: NCI-H226 lung
ACHN renal = test system: ACHN renal
MCF7 breast = test system: MCF7 breast
SNB-75 CNS = test system: SNB-75 CNS
SF-295 CNS = test system: SF-295 CNS
NCI/ADR-RES ovarian = test system: NCI/ADR-RES ovarian
T-47D breast = test system: T-47D breast
IGROV1 ovarian = test system: IGROV1 ovarian
OVCAR-4 ovarian = test system: OVCAR-4 ovarian
HS 578T breast = test system: HS 578T breast
MOLT-4 leukemia = test system: MOLT-4 leukemia
LOX IMVI melanoma = test system: LOX IMVI melanoma
RXF 393 renal = test system: RXF 393 renal
PC-3 prostate = test system: PC-3 prostate
UACC-257 melanoma = test system: UACC-257 melanoma
CCRF-CEM leukemia = test system: CCRF-CEM leukemia
SF-268 CNS = test system: SF-268 CNS
OVCAR-5 ovarian = test system: OVCAR-5 ovarian
UACC-62 melanoma = test system: UACC-62 melanoma
SK-MEL-28 melanoma = test system: SK-MEL-28 melanoma
A549 NSCLC = test system: A549 NSCLC
HT29 colon = test system: HT29 colon
SF-539 CNS = test system: SF-539 CNS
HL-60(TB) leukemia = test system: HL-60(TB) leukemia
EKVX NSCLC = test system: EKVX NSCLC
OVCAR-8 ovarian = test system: OVCAR-8 ovarian
HCT-15 colon = test system: HCT-15 colon
SK-OV-3 ovarian = test system: SK-OV-3 ovarian
DU-145 prostate = test system: DU-145 prostate
U251 CNS = test system: U251 CNS
NCI-H23 lung = test system: NCI-H23 lung
KM12 colon = test system: KM12 colon
MALME-3M melanoma = test system: MALME-3M melanoma
MDA-N = test system: MDA-N
SK-MEL-2 melanoma = test system: SK-MEL-2 melanoma
HOP-62 NSCLC = test system: HOP-62 NSCLC
NCI-H460 lung = test system: NCI-H460 lung
CAKI-1 renal = test system: CAKI-1 renal
K-562 leukemia = test system: K-562 leukemia
SK-MEL-5 melanoma = test system: SK-MEL-5 melanoma
OVCAR-3 ovarian = test system: OVCAR-3 ovarian
COLO 205 colon = test system: COLO 205 colon
SR leukemia = test system: SR leukemia
M14 melanoma = test system: M14 melanoma
RPMI-8226 leukemia = test system: RPMI-8226 leukemia
MDA-MB-435 = test system: MDA-MB-435
UO-31 renal = test system: UO-31 renal
NCI-H522 lung = test system: NCI-H522 lung
BT-549 breast = test system: BT-549 breast

[N-]=[N+]=NCc1nc(N)c2c3c(sc2n1)CCCC3
TGI (HCC-2998 colon): 4.76 µM
TGI (HOP-92 NSCLC): 1.77 µM
TGI (HCT-116 colon): 12 µM
TGI (786-0 renal): 1.55 µM
TGI (TK-10 renal): 26.5 µM
TGI (SN12C renal): 10.2 µM
TGI (A498 renal): 45 µM
TGI (SW-620 colon): > 100 µM
TGI (MDA-MB-231 breast): 80.6 µM
TGI (SNB-19 CNS): 21.4 µM
TGI (NCI-H226 lung): 5.97 µM
TGI (ACHN renal): 14.1 µM
TGI (MCF7 breast): 16.3 µM
TGI (SNB-75 CNS): 20.9 µM
TGI (SF-295 CNS): 27.9 µM
TGI (NCI/ADR-RES ovarian): > 22.2 µM
TGI (T-47D breast): 63.3 µM
TGI (IGROV1 ovarian): 2.92 µM
TGI (OVCAR-4 ovarian): 1.42 µM
TGI (HS 578T breast): 14.9 µM
TGI (MOLT-4 leukemia): > 100 µM
TGI (LOX IMVI melanoma): 2.13 µM
TGI (RXF 393 renal): 19.3 µM
TGI (PC-3 prostate): 6.72 µM
TGI (UACC-257 melanoma): 25.8 µM
TGI (CCRF-CEM leukemia): > 100 µM
TGI (SF-268 CNS): 6.23 µM
TGI (OVCAR-5 ovarian): 10.1 µM
TGI (UACC-62 melanoma): 23.6 µM
TGI (SK-MEL-28 melanoma): 36.3 µM
TGI (A549 NSCLC): 36.6 µM
TGI (HT29 colon): 3.15 µM
TGI (SF-539 CNS): 3.46 µM
TGI (HL-60(TB) leukemia): > 100 µM
TGI (EKVX NSCLC): 4.95 µM
TGI (OVCAR-8 ovarian): 3.72 µM
TGI (HCT-15 colon): 11.4 µM
TGI (SK-OV-3 ovarian): 24.1 µM
TGI (DU-145 prostate): 13.2 µM
TGI (U251 CNS): > 25.3 µM
TGI (NCI-H23 lung): 3.78 µM
TGI (KM12 colon): 2.86 µM
TGI (MALME-3M melanoma): 3.27 µM
TGI (MDA-N): 13.9 µM
TGI (SK-MEL-2 melanoma): 27.9 µM
TGI (HOP-62 NSCLC): 18.3 µM
TGI (NCI-H460 lung): 13.6 µM
TGI (CAKI-1 renal): 8.32 µM
TGI (K-562 leukemia): > 40.6 µM
TGI (SK-MEL-5 melanoma): 3.41 µM
TGI (OVCAR-3 ovarian): 11.8 µM
TGI (COLO 205 colon): > 39.3 µM
TGI (SR leukemia): > 100 µM
TGI (M14 melanoma): 17.7 µM
TGI (RPMI-8226 leukemia): > 24.9 µM
TGI (MDA-MB-435): 32 µM
TGI (UO-31 renal): 0.227 µM

COCOC1C=CCCCC2=CC(C)=C(CC1)O2 (stereo not drawn)
TGI (HCC-2998 colon): > 100 µM
TGI (HOP-92 NSCLC): > 100 µM
TGI (HCT-116 colon): > 100 µM
TGI (786-0 renal): > 100 µM
TGI (TK-10 renal): > 100 µM
TGI (SN12C renal): > 100 µM
TGI (A498 renal): > 100 µM
TGI (SW-620 colon): > 100 µM
TGI (MDA-MB-231 breast): > 100 µM
TGI (SNB-19 CNS): > 100 µM
TGI (NCI-H226 lung): > 100 µM
TGI (ACHN renal): > 100 µM
TGI (MCF7 breast): > 100 µM
TGI (SNB-75 CNS): > 100 µM
TGI (SF-295 CNS): > 100 µM
TGI (NCI/ADR-RES ovarian): > 100 µM
TGI (NCI-H522 lung): > 100 µM
TGI (IGROV1 ovarian): > 100 µM
TGI (OVCAR-4 ovarian): > 100 µM
TGI (HS 578T breast): > 100 µM
TGI (MOLT-4 leukemia): > 100 µM
TGI (LOX IMVI melanoma): > 100 µM
TGI (RXF 393 renal): > 100 µM
TGI (PC-3 prostate): > 100 µM
TGI (UACC-257 melanoma): > 100 µM
TGI (BT-549 breast): > 100 µM
TGI (CCRF-CEM leukemia): > 100 µM
TGI (SF-268 CNS): > 100 µM
TGI (OVCAR-5 ovarian): > 100 µM
TGI (UACC-62 melanoma): > 100 µM
TGI (SK-MEL-28 melanoma): > 100 µM
TGI (A549 NSCLC): > 100 µM
TGI (HT29 colon): > 100 µM
TGI (SF-539 CNS): > 100 µM
TGI (EKVX NSCLC): > 100 µM
TGI (OVCAR-8 ovarian): > 100 µM
TGI (HCT-15 colon): > 100 µM
TGI (SK-OV-3 ovarian): > 100 µM
TGI (DU-145 prostate): > 100 µM
TGI (U251 CNS): > 100 µM
TGI (NCI-H23 lung): > 100 µM
TGI (KM12 colon): > 100 µM
TGI (MALME-3M melanoma): > 100 µM
TGI (MDA-N): > 100 µM
TGI (HOP-62 NSCLC): > 100 µM
TGI (NCI-H460 lung): > 100 µM
TGI (CAKI-1 renal): > 100 µM
TGI (K-562 leukemia): > 100 µM
TGI (SK-MEL-5 melanoma): > 100 µM
TGI (OVCAR-3 ovarian): > 100 µM
TGI (COLO 205 colon): > 100 µM
TGI (SR leukemia): > 100 µM
TGI (M14 melanoma): > 100 µM
TGI (RPMI-8226 leukemia): > 100 µM
TGI (MDA-MB-435): > 100 µM
TGI (UO-31 renal): > 100 µM
